Experimental findings from patent US4000269A, “S-(α-substituted-arylmethylthio, -arylmethylsulfinyl, and -arylmethylsulfonyl)methyl phosphorus esters used as insecticides” (priority 1975, dated 1976) are described below.

What is called LD50 is the dose expected to kill half of the subjects tested. Read a low LD50 as greater toxicity.

Data set [1] has as its system Southern corn rootworm larvae (Diabrotica undecimpunctata). Description: Southern Corn Rootworm Control (treated soil, dust on talc). Type of data set: in vivo. As to conditions: 144 h, potting soil, mortality after 6 days, read-out: Percent Control of Southern Corn Rootworm Larvae; for mortality at 1120.85 g/ha: 1 lbs./Acre; for mortality at 11208.5 g/ha: 10 lbs./Acre; for mortality at 56042.5 g/ha: 50 lbs./Acre. As for the experimental part: Compounds are prepared as dusts on talc. The compounds are dissolved in acetone, and appropriate rates obtained by serial dilution. One and one-quarter milliliters of solution is pipetted onto a standard volume of dust in 1 -ounce jars, and the acetone allowed to evaporate. Twenty-five milliliters of moist soil and about 200 millet seeds are placed in the jar, capped and the contents thoroughly mixed. Ten second-instar larvae of the Southern corn rootworm (Diabrotica undecimpunctata ) are then placed in each jar. Mortality counts are made after 6 days and percent mortality determined.

The nature of data set [2]: Mammalian Toxicity Studies (LD50 for Rats). As to conditions: rat, in vivo; 14-day observation; corn oil. Also on record: species or system male albino rats (Carworth Farms Nelson strain). As for the experimental part: Twenty male albino rats or mice of the Carworth Farms Nelson strain (CFI strain for mice)(or other suitable strain) weighing approximately 90 to 120 grams (18-20g. for mice) are selected. Basically, these animals are fasted 24 hours before dosing. Mice are not fasted.
For materials which are soluble or easily dispersed in an aqueous medium, a 20% solution or suspension is prepared in an aqueous solution of 0.2% agar and 0.1% "Tween" 80. The same series of dosages (grams or milliliters of material per kilogram of animal body weight) are used for all materials in this test. If no previous information is available on the compound or its analogs, a maximum dosage of 10 g/kg is selected to differ by a geometric factor of 2 from the preceding dose, i.e., 10, 5, 2.5, 1.25 g/kg. A sufficient number of dosages are given so as to bracket a 50% response. The animals are observed for several hours after dosing and daily over a 14-day observation period. At the end of this period the survivors are sacrificed, weighed and subjected to a gross autopsy. The results are tabulated and the LD50 is calculated by the method of moving averages using the tables constructed by Weil. [Weil, C. S., Biometrics, 8: (3), 249-263, 1952].
Samples received as liquids may be administered undiluted or as suspensions in aqueous Agar-Tween, depending on the viscosity of the material. If the material is believed to be relatively non-toxic, an initial maximum dosage of 10 ml/kg is selected and subsequent dosages are selected based upon the severity of gross signs of toxicity.
For organic phosphate anticholinesterase insecticides, the procedure is modified somewhat. The phosphates are readied for administration by preparing a solution or dispersion in corn oil (Mazola), the concentration of which is adjusted so that the total volume of the dose is 20 ml/kg ([…]) in every case. The initial solution is prepared by deciding upon the maximum dosage in mg/kg to be administered and preparing 50 ml. (10 in mouse test) of this solution of such a concentration that the desired dosage in mg/kg is delivered when 2 ml. (0.5 ml. in mouse test) of the solution is administered for 100 g (20 g in mouse) of rat body weight. Serial dilutions differing by a factor of two are then prepared for each lower dosage level.

The test system of data set [3] is False wireworm larvae (Eleodes suturalis). Description: False Wireworm Control (treated soil, dust on talc). It is filed as in vivo. The conditions noted are these: 144 h, potting soil, mortality after 6 days, read-out: Percent Control of False Wireworms. As for the experimental part: Compounds are prepared as dusts on talc. The compounds are dissolved in acetone, and appropriate rates obtained by serial dilution. One and one-quarter milliliters of solution is pipetted onto a standard volume of dust in 1 -ounce jars, and the acetone allowed to evaporate. Twenty-five milliliters of moist soil and about three wheat seeds are placed in the jar, capped, and the contents thoroughly mixed. Ten False wireworm larvae (Eleodes suturalis ), 10 days old, are then placed in each jar. Mortality counts are made after 6 days and percent mortality determined.

Data set [4] concerns Southern Armyworm (Prodenia eridania). Description: D. Southern Armyworm leaf-dip test. Type of data set: in vivo. As to conditions: Spodoptera eridania, 48 h, 2 days, read-out: Percent Mortality, Southern Armyworm. As for the experimental part: Compounds are tested at 1000 and 100 ppm. in solution or suspension in 65 % acetone/35 % water. Sieva lima bean primary leaves are dipped for 3 seconds in the test solution and set in a hood on a screen to dry. When dry, each leaf is placed in a 4 -inch petri dish which has a moist filter paper in the bottom and ten third-instar armyworm larvae about 3/8 inch long. The dishes are covered and held at 80° F., and 60 % R.H. After 2 days, mortality counts and estimates of the amount of feeding are made. Compounds showing partial kill and/or inhibition of feeding are held an extra day for further observations.

In data set [5] the test system is Two-spotted Spider Mite (Tetranychus urticae). Description: E. Two-spotted Spider Mite plant-dip test. Type of data set: in vivo. As to conditions: 48 h, read-out: Percent Mortality, Two-spotted Spider Mite; for mortality at 100 ppm: 2 days. As for the experimental part:
Sieva lima bean plants with primary leaves 3 to 4 inches long are infested with about 100 adult mites per leaf 4 hours before use in this test. The mite and egg infested plants are dipped for 3 seconds in the same solutions used in the aphid test, and the plants set in the hood to dry. They are held for 2 days at 80° F., 60% R.H., and the adult mite mortality estimated on one leaf under a steroscopic microscope. The other leaf is left on the plant an additional 5 days and then examined at 10 X power to estimate the kill of eggs and of newly hatched nymphs, giving a measure of ovicidal and residual action, respectively.

The test system of data set [6] is Boll Weevil (Anthonomus grandis). Description: B. Boll Weevil leaf-dip test. Type of data set: in vivo. As to conditions: 48 h, 100 ppm., 2 days, read-out: Percent Mortality, Boll Weevil. As for the experimental part:
Test compounds are prepared as 1000 ppm. solutions in 10 % acetone, 0.2 % Alrodyne 315 , and 89.8 % water. A tenfold dilution is made with 65 % acetone and 35 % water. The first or second true leaf of young cotton plants is dipped for 3 to 5 seconds in the test solution and placed in an exhaust hood to dry. When dry, each leaf is placed in a 4 -inch petri dish with a moist filter paper on the bottom. Ten adult boll weevils are removed from the stock culture and placed in the petri dish. The dishes are covered and held at 80° F. and 50 % R.H. After 2 days, mortality counts are made.

Data set [7] deals with Tarnished Plant Bug (Lygus lineolaris). Description: A. Tarnished Plant Bug leaf-dip test. It is filed as in vivo. The conditions noted are these: 48 h, 100 ppm., 2 days, read-out: Percent Mortality, Tarnished plant Bug. As for the experimental part:
Test compounds are prepared as 1000 ppm. solutions in 10 % acetone, 0.2 % Alrodyne 315 , and 89.8 % water. A tenfold dilution is made with 65 % acetone and 35 % water. The primary leaves of Sieva lima bean plants are dipped for 3 to 5 seconds in the test solutions and placed in an exhaust hood to dry. When dry, each leaf is placed in a 4 -inch petri dish with a moist filter paper on the bottom. Ten adult Lygus bugs are aspirated from the stock culture and placed in the petri dish. The dishes are covered and held at 80° F. and 50 % R.H. After 2 days, mortality counts are made.

The next data set concerns Bean Aphid (Aphis fabae). Description: C. Bean Aphid spray test. It is filed as in vivo. As to conditions: 48 h, 2 days, read-out: Percent Mortality, Bean Aphid. As for the experimental part:
Compounds are tested at 100 , 10 and 1 ppm. in solution or suspension in 65 % acetone/35 % water. Two-inch fiber pots each containing a nasturtium plant 2 inches high and infested with about 150 aphids 2 days earlier, are placed on a turntable (4 RPM) and sprayed for two revolutions with a No. 154 DeVilbiss Atomizer at 20 psi. air pressure. The spray tip is held about 6 inches from the plants, and the spray is directed so as to give complete coverage of the aphids and the plants. The sprayed plants are laid on their sides on white enamel trays. Mortality estimates are made after holding for 2 days at 70° F. and 50% R.H.

The subject of data set [8] is Western Potato Leafhopper (Empoasca abrupta). Description: G. Western Potato Leafhopper plant-dip test. Type of data set: in vivo. As to conditions: 48 h, 2 days, read-out: Percent Mortality, Western Potato Leafhopper. As for the experimental part:
Sieva lima bean plants with the primary leaf expanded to 3 to 4 inches are dipped into 100 or 10 ppm. 50 % acetone/50 % water solutions and set in the hood to dry. A 1 -inch piece of the tip of a treated leaf is cut off and placed in a 4 -inch petri dish with a moist filter paper in the bottom. From 3 to 10 second-instar nymphs are tapped from the culture plants into the test dish and rapidly covered. Mortality counts are made after 2 days at 80° F., and 50 % R.H.

The test system of data set [9] is Malaria Mosquito (Anopheles quadrimaculatus). Description: H. Malaria Mosquito Adult Test. Type of data set: in vivo. The conditions noted are these: 24 h, adults, 1 day, read-out: Percent Mortality, Malaria Mosquito. As for the experimental part:
Solutions of 65% acetone/35% water containing 10 ppm. of test compound are poured into wide-mouth 2-ounce jars, each containing a microscope slide. The slides are removed from the test solution with forceps and laid horizontally to dry on a wide-mouth 4-ounce bottle. When dry, they are placed in the same 4-ounce bottle and 10 4- to 5-day-old mosquitoes of mixed sexes are added to each bottle. A piece of cotton gauze held on by an elastic band serves as a lid, and wad of cotton soaked in 10% honey solution serves as food. Mortality counts are made after 1 day at 80° F., 50% R.H. (relative humidity) Data obtained with the above procedures are reported in Table II below.

Data set [10] has as its system Mexican Bean Beetle (Epilachna varivestis). Description: F. Mexican Bean Beetle leaf-dip test. It is filed as in vivo. As to conditions: 48 h, 2 days, read-out: Percent Mortality, Mexican Bean Beetle. As for the experimental part: Compounds to be tested are made up as 100 or 10 ppm. solutions in 65 % acetone/35 % water. Sieva lima bean leaves are dipped in the test solution and set in the hood to dry. When dry, they are placed in 4 -inch petri dishes which have a moist filter paper in the bottom, and 10 third-instar bean beetles are added to each dish. The dishes are covered and held at 80° F., 60 % R.H. After 2 days, mortality counts and estimates of the amount of feeding are made. Compounds showing kills greater than 75 % are further tested at tenfold dilutions in 65 % acetone/35 % water.

Molecules are shown by their SMILES.

Take `COP(=S)(OC)SCSC(C)(C)c1cccc(Cl)c1Cl` [Example 23, S-(2,3-Dichloro-α,α-dimethylbenzylthio)methyl O,O-Dimethyl Phosphorodithioate]: in data set [1], the mortality at 1120.85 g/ha is 60%, the mortality at 11208.5 g/ha is 90% and the mortality at 56042.5 g/ha was found to be 100%. Further, in data set [2], the LD50 at 336 h is > 500 mg/kg.

Regarding `CCOP(=S)(OCC)SCSC(C)(C)c1ccc(Cl)cc1` [Example 6, S-(p-Chloro-α,α-Dimethylbenzylthio)methyl O,O-Diethyl Phosphorodithioate], in data set [1], the mortality at 1120.85 g/ha came out at 0%, the mortality at 11208.5 g/ha came to 90% and the mortality at 56042.5 g/ha was 100%. In data set [2], this compound returned an LD50 at 336 h of 79 mg/kg.

Regarding `CC(C)OP(=S)(OC(C)C)SCSC(C)(C)c1ccccc1` [Example 20, S-(α,α-Dimethylbenzylthio)methyl O,O-diisopropylPhosphorodithioate], the mortality at 11208.5 g/ha in data set [1] and in data set [3] (10 lbs./Acre) was 0% throughout. Moreover, the mortality at 56042.5 g/ha in data set [1] and in data set [3] (50 lbs./Acre) was 100% each time.

Regarding `CCOP(=S)(OCC)SCSC(C)(C)c1ccc(Cl)cc1` [drawing 18], the mortality at 100 ppm came out at 100% in [4]; 100% in data set [5]; 0% in [6]; 0% in data set [7]; 100% in the data set with Bean Aphid (Aphis fabae); 100% in data set [8]. The mortality at 100 ppm in [10] was 100%. Moreover, in [4], the mortality at 1000 ppm was determined as 100%. Moreover, in data set [5], the mortality at 300 ppm amounted to 100%. The mortality at 1 ppm in the data set with Bean Aphid (Aphis fabae) turned out to be 90%. The mortality at 10 ppm is 100% with Bean Aphid (Aphis fabae), 100% in [8], 75% in data set [9] and 40% in data set [10].

With `CCOP(=S)(OCC)SCSC(C)(C)c1ccccc1` [drawing 6], the mortality at 100 ppm in data set [4] was 100%; in data set [5], 75%; in data set [6], 95%; in [7], 94%; in the data set on Bean Aphid (Aphis fabae), 100%; in data set [8] it was 100%. In addition, the mortality at 100 ppm in data set [10] worked out at 100%. For the same compound, the mortality at 1000 ppm in data set [4] was found to be 100%. Also, in the data set on Bean Aphid (Aphis fabae), the mortality at 1 ppm came to 85%. Besides, the mortality at 10 ppm was found to be 100% in the data set on Bean Aphid (Aphis fabae), 100% in [8], 100% in [9] and 40% in data set [10].

For `CCOP(=S)(OCC)SCSC(CC)(CC)c1ccccc1` [drawing 15], the mortality at 100 ppm was 0% in data set [4]; 0% in [6]; 0% in data set [7]; 100% with Bean Aphid (Aphis fabae); 0% in [8]; 90% in [10]. For the same compound, the mortality at 1000 ppm in data set [4] came out at 100%. Further, in [5], the mortality at 300 ppm came to 0%. The mortality at 1 ppm in the data set on Bean Aphid (Aphis fabae) came out at 0%. Also, the mortality at 10 ppm in the data set with Bean Aphid (Aphis fabae) came out at 100%; in data set [9] it was 0%; in data set [10], 0%.
